Data as given in the kinase profiling compilation of Christmann-Franck et al. (2016).

Key:
Assay in all cases: radiometric filter-binding kinase assay, Kinase HotSpot
Settings in all cases: compound 0.5 µM; ATP 10 µM
[1] = biological target: RPS6KA5 KD2 (human) (UniProt O75582)
[2] = biological target: NEK6 (human) (UniProt Q9HC98)
[3] = biological target: CLK2 (human) (UniProt P49760)
[4] = biological target: MYLK2 (human) (UniProt Q9H1R3)
[5] = biological target: AURKB (human) (UniProt Q96GD4)
[6] = biological target: EPHA3 (human) (UniProt P29320)
EPHA3 (human), sequence (P29320 whole entry, looked up): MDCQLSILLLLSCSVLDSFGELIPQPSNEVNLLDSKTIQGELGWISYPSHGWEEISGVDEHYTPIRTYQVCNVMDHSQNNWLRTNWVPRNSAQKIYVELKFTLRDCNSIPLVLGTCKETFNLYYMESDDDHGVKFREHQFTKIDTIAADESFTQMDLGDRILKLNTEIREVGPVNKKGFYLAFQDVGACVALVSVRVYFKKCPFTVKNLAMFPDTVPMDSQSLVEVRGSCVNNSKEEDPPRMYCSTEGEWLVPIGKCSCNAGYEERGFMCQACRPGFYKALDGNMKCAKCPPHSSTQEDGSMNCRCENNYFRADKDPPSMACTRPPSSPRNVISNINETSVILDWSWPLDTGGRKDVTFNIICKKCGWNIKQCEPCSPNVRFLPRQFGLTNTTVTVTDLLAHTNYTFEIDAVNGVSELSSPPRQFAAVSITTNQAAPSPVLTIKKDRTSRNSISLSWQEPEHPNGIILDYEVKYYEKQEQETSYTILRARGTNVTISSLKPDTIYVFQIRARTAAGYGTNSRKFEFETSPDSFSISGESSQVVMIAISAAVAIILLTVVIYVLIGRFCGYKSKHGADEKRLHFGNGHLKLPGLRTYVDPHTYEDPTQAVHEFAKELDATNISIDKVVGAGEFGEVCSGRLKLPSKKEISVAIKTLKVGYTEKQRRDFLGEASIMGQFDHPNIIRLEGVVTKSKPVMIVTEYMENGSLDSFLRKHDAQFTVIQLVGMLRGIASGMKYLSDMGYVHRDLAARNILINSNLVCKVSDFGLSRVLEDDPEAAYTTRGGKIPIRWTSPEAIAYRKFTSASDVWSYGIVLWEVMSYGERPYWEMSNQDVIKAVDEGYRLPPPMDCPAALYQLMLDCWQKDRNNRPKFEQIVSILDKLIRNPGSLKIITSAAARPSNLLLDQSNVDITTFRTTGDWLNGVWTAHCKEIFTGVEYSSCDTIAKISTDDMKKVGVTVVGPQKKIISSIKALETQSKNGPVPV

[7] = biological target: PLK3 (human) (UniProt Q9H4B4)
[8] = biological target: MATK (human) (UniProt P42679)
MATK (human), sequence (P42679 whole entry, looked up): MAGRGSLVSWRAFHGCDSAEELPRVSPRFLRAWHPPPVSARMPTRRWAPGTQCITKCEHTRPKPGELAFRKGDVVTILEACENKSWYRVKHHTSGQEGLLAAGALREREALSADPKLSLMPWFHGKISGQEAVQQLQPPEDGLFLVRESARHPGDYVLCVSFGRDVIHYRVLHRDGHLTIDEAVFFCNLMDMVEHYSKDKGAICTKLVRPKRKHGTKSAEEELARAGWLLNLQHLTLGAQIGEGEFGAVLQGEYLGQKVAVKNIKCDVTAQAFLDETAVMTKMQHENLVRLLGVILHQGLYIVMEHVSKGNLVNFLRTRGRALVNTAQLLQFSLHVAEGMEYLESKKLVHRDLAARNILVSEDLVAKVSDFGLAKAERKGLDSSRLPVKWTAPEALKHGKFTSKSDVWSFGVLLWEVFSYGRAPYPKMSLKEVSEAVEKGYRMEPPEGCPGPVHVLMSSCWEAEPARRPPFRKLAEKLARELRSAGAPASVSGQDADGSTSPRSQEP

[9] = biological target: SIK2 (human) (UniProt Q9H0K1)
[10] = biological target: TEC (human) (UniProt P42680)
[11] = biological target: TGFBR1 (human) (UniProt P36897)
TGFBR1 (human), sequence (P36897 whole entry, looked up): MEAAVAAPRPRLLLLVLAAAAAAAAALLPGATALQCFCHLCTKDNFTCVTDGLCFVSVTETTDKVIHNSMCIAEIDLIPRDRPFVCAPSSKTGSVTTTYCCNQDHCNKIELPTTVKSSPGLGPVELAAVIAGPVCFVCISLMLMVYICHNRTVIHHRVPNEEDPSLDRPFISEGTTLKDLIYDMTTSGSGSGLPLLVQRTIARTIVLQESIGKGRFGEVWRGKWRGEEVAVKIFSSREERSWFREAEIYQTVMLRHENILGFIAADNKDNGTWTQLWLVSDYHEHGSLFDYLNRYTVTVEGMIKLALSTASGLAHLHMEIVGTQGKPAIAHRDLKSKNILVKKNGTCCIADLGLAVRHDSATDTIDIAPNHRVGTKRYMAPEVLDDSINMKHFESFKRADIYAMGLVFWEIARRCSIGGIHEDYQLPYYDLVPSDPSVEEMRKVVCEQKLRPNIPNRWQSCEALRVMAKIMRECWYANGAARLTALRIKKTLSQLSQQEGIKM

[12] = biological target: MAPK3 (human) (UniProt P27361)
[13] = biological target: HIPK2 (human) (UniProt Q9H2X6)
[14] = biological target: PRKD2 (human) (UniProt Q9BZL6)
[15] = biological target: PRKCD (human) (UniProt Q05655)
[16] = biological target: ERBB4 (human) (UniProt Q15303)
[17] = biological target: MYLK (human) (UniProt Q15746)
[18] = biological target: SRMS (human) (UniProt Q9H3Y6)
[19] = biological target: NEK4 (human) (UniProt P51957)
[20] = biological target: TBK1 (human) (UniProt Q9UHD2)
TBK1 (human), sequence (Q9UHD2 whole entry, looked up): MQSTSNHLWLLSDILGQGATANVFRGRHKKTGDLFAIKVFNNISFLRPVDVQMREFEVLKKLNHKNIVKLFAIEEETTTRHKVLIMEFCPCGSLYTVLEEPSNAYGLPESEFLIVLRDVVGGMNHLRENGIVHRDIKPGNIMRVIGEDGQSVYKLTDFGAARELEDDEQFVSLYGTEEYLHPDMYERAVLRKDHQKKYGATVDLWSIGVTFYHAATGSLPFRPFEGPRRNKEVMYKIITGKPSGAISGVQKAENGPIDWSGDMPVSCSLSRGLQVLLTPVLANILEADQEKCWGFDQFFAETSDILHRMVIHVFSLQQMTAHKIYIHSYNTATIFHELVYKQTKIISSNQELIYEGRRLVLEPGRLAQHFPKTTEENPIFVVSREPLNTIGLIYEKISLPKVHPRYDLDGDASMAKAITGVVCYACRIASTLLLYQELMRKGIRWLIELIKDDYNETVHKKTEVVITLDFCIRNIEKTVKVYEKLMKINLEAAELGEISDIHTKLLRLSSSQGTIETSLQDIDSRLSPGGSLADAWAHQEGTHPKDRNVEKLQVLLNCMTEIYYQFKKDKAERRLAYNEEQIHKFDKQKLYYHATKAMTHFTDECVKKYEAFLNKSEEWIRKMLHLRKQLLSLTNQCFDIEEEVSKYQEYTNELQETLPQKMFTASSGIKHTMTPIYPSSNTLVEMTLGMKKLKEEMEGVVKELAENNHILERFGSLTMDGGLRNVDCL

[21] = biological target: NEK9 (human) (UniProt Q8TD19)
[22] = biological target: PTK2B (human) (UniProt Q14289)
[23] = biological target: RET (human) (UniProt P07949)
[24] = biological target: ACVR1 (human) (UniProt Q04771)
[25] = biological target: FRK (human) (UniProt P42685)
[26] = biological target: PDPK1 (human) (UniProt O15530)
[27] = biological target: MUSK (human) (UniProt O15146)
MUSK (human), sequence (O15146 whole entry, looked up): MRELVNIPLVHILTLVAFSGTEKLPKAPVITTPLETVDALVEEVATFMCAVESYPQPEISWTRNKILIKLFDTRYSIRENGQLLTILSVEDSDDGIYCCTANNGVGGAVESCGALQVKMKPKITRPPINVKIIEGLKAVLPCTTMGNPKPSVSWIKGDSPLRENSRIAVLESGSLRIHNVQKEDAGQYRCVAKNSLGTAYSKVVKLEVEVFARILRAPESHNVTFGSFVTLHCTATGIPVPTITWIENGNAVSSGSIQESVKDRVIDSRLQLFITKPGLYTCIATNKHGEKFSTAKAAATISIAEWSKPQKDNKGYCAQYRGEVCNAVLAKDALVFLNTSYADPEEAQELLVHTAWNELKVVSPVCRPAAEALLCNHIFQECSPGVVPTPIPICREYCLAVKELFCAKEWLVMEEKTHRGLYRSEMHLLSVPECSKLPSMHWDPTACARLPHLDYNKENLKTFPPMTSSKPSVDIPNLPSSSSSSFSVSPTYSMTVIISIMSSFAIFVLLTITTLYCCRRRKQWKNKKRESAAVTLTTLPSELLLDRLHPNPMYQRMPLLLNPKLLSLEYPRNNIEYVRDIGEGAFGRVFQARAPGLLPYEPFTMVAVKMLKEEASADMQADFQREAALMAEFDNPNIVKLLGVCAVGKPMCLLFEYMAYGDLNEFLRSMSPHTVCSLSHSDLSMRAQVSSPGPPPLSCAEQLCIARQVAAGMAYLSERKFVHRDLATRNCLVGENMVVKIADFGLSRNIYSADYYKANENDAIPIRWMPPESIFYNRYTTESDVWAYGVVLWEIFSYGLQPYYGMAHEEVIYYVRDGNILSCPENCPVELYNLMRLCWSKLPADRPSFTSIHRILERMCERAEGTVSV

[28] = biological target: CDK2 CCNE1 (human) (UniProt P24941+P24864)
[29] = biological target: JAK1 JH1 catalytic (human) (UniProt P23458)
[30] = biological target: SRPK2 (human) (UniProt P78362)
[31] = biological target: NEK2 (human) (UniProt P51955)
[32] = biological target: FGFR2 (human) (UniProt P21802)
[33] = biological target: EPHB4 (human) (UniProt P54760)
[34] = biological target: DAPK2 (human) (UniProt Q9UIK4)
DAPK2 (human), sequence (Q9UIK4 whole entry, looked up): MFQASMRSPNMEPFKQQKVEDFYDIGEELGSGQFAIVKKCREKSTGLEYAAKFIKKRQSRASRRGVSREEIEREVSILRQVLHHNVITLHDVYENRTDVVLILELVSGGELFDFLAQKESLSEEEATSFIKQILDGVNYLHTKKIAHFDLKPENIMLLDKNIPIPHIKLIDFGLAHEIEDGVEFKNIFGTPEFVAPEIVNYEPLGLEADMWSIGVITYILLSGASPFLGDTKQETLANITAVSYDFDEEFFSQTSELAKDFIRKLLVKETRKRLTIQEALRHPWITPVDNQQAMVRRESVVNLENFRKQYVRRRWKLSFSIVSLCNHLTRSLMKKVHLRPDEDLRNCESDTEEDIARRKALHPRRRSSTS

[35] = biological target: NEK1 (human) (UniProt Q96PY6)
[36] = biological target: CSNK1D (human) (UniProt P48730)
[37] = biological target: PRKCH (human) (UniProt P24723)
[38] = biological target: CHEK1 (human) (UniProt O14757)
[39] = biological target: BTK (human) (UniProt Q06187)
[40] = biological target: NUAK2 (human) (UniProt Q9H093)
[41] = biological target: IRAK1 (human) (UniProt P51617)
[42] = biological target: CDK7 CCNH MNAT1 (human) (UniProt P50613+P51948+P51946)
CDK7 CCNH MNAT1 (human), sequence (P50613 whole entry, looked up): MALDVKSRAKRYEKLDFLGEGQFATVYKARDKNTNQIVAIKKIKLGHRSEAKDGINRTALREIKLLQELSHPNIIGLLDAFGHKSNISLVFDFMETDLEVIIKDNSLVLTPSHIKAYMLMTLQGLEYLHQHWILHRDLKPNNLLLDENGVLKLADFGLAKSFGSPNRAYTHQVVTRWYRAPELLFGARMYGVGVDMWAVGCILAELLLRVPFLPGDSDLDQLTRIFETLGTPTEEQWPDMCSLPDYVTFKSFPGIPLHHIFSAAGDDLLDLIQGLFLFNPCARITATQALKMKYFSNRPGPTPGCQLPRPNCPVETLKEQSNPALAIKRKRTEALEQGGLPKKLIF
CDK7 CCNH MNAT1 (human), sequence (P51946 whole entry, looked up): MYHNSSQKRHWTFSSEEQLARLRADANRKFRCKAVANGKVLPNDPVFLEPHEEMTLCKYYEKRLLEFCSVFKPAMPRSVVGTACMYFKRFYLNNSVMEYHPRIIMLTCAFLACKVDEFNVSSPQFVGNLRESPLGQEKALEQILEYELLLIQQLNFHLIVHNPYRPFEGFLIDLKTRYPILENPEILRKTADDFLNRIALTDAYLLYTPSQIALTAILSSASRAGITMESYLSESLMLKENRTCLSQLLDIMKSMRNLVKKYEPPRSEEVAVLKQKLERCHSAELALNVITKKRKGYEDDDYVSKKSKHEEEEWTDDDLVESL
CDK7 CCNH MNAT1 (human), sequence (P51948 whole entry, looked up): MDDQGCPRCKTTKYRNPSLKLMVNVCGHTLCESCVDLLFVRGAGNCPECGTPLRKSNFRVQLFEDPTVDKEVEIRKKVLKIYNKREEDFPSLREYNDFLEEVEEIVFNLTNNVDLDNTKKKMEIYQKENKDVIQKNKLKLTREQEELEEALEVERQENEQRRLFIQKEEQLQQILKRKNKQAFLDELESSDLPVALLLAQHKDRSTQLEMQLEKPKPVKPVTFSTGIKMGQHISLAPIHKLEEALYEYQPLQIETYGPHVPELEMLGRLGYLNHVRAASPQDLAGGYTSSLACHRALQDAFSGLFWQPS

O=C1NC(=O)c2c1c1c3ccccc3[nH]c1c1[nH]c3cc(Br)ccc3c21
residual activity [1]: 76.1%
residual activity [2]: 104%
residual activity [3]: 84.7%
residual activity [4]: 43.3%
residual activity [5]: 44.3%
residual activity [6]: 100%
residual activity [7]: 93.3%
residual activity [8]: 97.3%
residual activity [9]: 80.4%
residual activity [10]: 105%
residual activity [11]: 96.9%
residual activity [12]: 108%
residual activity [13]: 107%
residual activity [14]: 45.9%
residual activity [15]: 99.1%
residual activity [16]: 101%
residual activity [17]: 85.3%
residual activity [18]: 91.5%
residual activity [19]: 89%
residual activity [20]: 53.5%
residual activity [21]: 83.6%
residual activity [22]: 79.5%
residual activity [23]: 80.1%
residual activity [24]: 127%
residual activity [25]: 93.9%
residual activity [26]: 66.1%
residual activity [27]: 88.4%
residual activity [28]: 74.9%
residual activity [29]: 110%
residual activity [30]: 96.2%
residual activity [31]: 92%
residual activity [32]: 98.4%
residual activity [33]: 86.5%
residual activity [34]: 98.4%
residual activity [35]: 89.1%
residual activity [36]: 96.9%
residual activity [37]: 100%
residual activity [38]: 79.7%
residual activity [39]: 74.8%
residual activity [40]: 84.5%
residual activity [41]: 81.8%
residual activity [42]: 93.1%

Cc1cc(Nc2nc(-c3ccccc3)nc3ccccc23)n[nH]1
residual activity [1]: 70.5%
residual activity [2]: 93.9%
residual activity [3]: 91.7%
residual activity [4]: 62.8%
residual activity [5]: 52%
residual activity [6]: 88.9%
residual activity [7]: 88.3%
residual activity [8]: 96.1%
residual activity [9]: 99.6%
residual activity [10]: 106%
residual activity [11]: 97.1%
residual activity [12]: 80.8%
residual activity [13]: 101%
residual activity [14]: 75.9%
residual activity [15]: 91.3%
residual activity [16]: 92%
residual activity [17]: 60.2%
residual activity [18]: 98.7%
residual activity [19]: 95%
residual activity [20]: 53.8%
residual activity [21]: 79.9%
residual activity [22]: 61.4%
residual activity [23]: 8.76%
residual activity [24]: 149%
residual activity [25]: 72.5%
residual activity [26]: 90.3%
residual activity [27]: 51%
residual activity [28]: 75.4%
residual activity [29]: 83.7%
residual activity [30]: 68.8%
residual activity [31]: 99.3%
residual activity [32]: 83.7%
residual activity [33]: 91.1%
residual activity [34]: 89.5%
residual activity [35]: 93%
residual activity [36]: 96.7%
residual activity [37]: 89.6%
residual activity [38]: 69.1%
residual activity [39]: 43.4%
residual activity [40]: 71.1%
residual activity [41]: 79.3%
residual activity [42]: 73.3%
